Data as given in US20050267067A1, “Radical reaction inhibitors, method for inhibition of radical reactions, and use thereof” (priority 2002, published 2005).

Assays:
[1] = Inhibition of hydroxy radical formation (H2O2/iron sulfate, DMPO spin trap, ESR); details: for Amount of formed hydroxy radical: ESR peak ratio to Mn2+ standard, relative value; for Hydroxy radical formation (%): versus system with no saccharide
Protocol: Each of the resulting mixtures was mixed to initiate reaction, injected into a cell for measuring electron spin resonance spectrum (ESR), set to a detector, and measured for formation level of hydroxy radical at a prescribed period of time after initiating reaction. […] For measurement of ESR, “Free Radical Monitor JES-FR30” was used, and the formation level of hydroxy radical was determined by calculating a ratio of a peak level detected first after initiating the measurement among the characteristic signal peaks characteristic of 5,5-dimethyl-1-pyrroline-oxide-OH (hydroxy radical), used as a spin trapping agent, and a peak level of Mn^2+ of an external standard installed in the apparatus of “JES-FR30”, and expressed as relative values in Table 1.

[2] = system: low density lipoprotein (LDL); test: Oxidation of low density lipoprotein (LDL) by AAPH, absorbance at 234 nm; assay type: biochemical; details: for Absorbance at a wavelength of 234 nm Average: 120 min after initiating the reaction
Protocol: An experiment for examining the influence of cyclotetrasaccharide on the oxidation inhibition for low density lipoprotein (LDL) was conducted as follows: Two and half milliliters of 0.5 mg/ml of a low density lipoprotein (LDL) in phosphate buffered saline (PBS, pH 7.4) was mixed with 2.5 ml of 100 mM PBS solution containing any one of the crystalline cyclotetrasaccharide pentahydrate, crystalline cyclotetrasaccharide monohydrate, and anhydrous crystalline cyclotetrasaccharide, which had been prepared in Experiment 1-1, in PBS or 2.5 ml of PBS free of cyclotetrasaccharide. The resulting mixture was admixed with 50 μl of 100 mM 2,2′-azo-bis(2-amidinopropane)dihydrochloride (AAPH) in PBS (pH 7.4) and reacted at 37° C. The reaction was continued for 240 min to examine changes on time course. […] In Table 2, the results for crystalline cyclotetrasaccharide pentahydrate are only shown because crystalline cyclotetrasaccharide pentahydrate, crystalline cyclotetrasaccharide monohydrate, and anhydrous crystalline cyclotetrasaccharide gave similar results. Also, the influence of cyclotetrasaccharide on the oxidation of a low density lipoprotein (LDL) by AAPH was examined by mixing a 2.5 ml solution containing 0.5 mg/ml of a low density lipoprotein (LDL) in PBS with 2.5 ml of a PBS solution in which the crystalline cyclotetrasaccharide pentahydrate, prepared in Experiment 1-1, had been dissolved to give a concentration of 2 mM, 10 mM or 20 mM, or 2.5 ml of PBS with no cyclotetrasaccharide; and measuring for absorbance at a wavelength of 234 nm for each of the resulting mixtures similarly as above.

sucrase = test: Sucrase activity of rat small intestinal mucosal enzyme solution after AAPH oxidation; assay type: biochemical
Protocol: One milliliter of the above rat small intestinal mucosal enzyme solution, one milliliter of a 100 mM AAPH solution, one milliliter of a 50 mM phosphate buffer (pH 7.2), and one milliliter of a 400 mM of the crystalline cyclotetrasaccharide pentahydrate prepared in Experiment 1-1 were mixed, incubated at 37° C. for two hours, and measured for the activities of sucrase and maltase.
After incubated at 37° C. for 30 min, the mixture was quantified for free glucose by the GOD method.

maltase = test: Maltase activity of rat small intestinal mucosal enzyme solution after AAPH oxidation; assay type: biochemical
Protocol: One milliliter of the above rat small intestinal mucosal enzyme solution, one milliliter of a 100 mM AAPH solution, one milliliter of a 50 mM phosphate buffer (pH 7.2), and one milliliter of a 400 mM of the crystalline cyclotetrasaccharide pentahydrate prepared in Experiment 1-1 were mixed, incubated at 37° C. for two hours, and measured for the activities of sucrase and maltase. […] To a half milliliter of a maltose solution, which had been prepared by dissolving maltose in 50 mM sodium maleate (pH 6.6) to give a concentration of one percent (%), 0.05 ml of a AAPH-rat small intestinal mucosal enzyme solution. After incubated at 37° C. for 30 min, the mixture was quantified for free glucose by the GOD method. One unit (U) activity of maltase was defined as an enzyme amount that releases two micromoles of glucose per minutes from maltose at 37° C.

[3] = Preservation of vitamin D3 tablets at 60° C., absorbance at 265 nm; assay type: physicochemical; details: after preserving for 14 days
[4] = enzyme solution incubated with AAPH at 37° C. for two hours, with or without cyclotetrasaccharide
[5] = versus system with no AAPH, 37° C., two hours

For `OCC1OC2OCC3O[C@H](O[C@H]4C(O)C(CO)OC(OCC5O[C@H](O[C@@H](C1O)C2O)C(O)C(O)[C@@H]5O)C4O)C(O)C(O)[C@@H]3O` (stereo partly drawn) [Cyclotetrasaccharide, cyclo{→6}-α-D-glucopyranosyl-(1→3)-α-D-glucopyranosyl-(1→6)-α-D-glucopyranosyl-(1→3)-α-D-glucopyranosyl-(1→}], the “Amount of formed hydroxy radical” value ([1]; 15 mM saccharide) was 1.009, the “Hydroxy radical formation (%)” value ([1]; 15 mM saccharide) was “(34) %” and the “Hydroxy radical formation (%)” value ([1]; 15 mM saccharide, listed as cyclotetrasaccharide) was “about 34%”. The “Amount of formed hydroxy radical” value ([1]; 38 mM saccharide) was 0.265, the “Hydroxy radical formation (%)” value ([1]; 38 mM saccharide) was “(9) %” and the “Hydroxy radical formation (%)” value ([1]; 38 mM saccharide, listed as cyclotetrasaccharide) was “about 9%”. The “Amount of formed hydroxy radical” value ([1]; 75 mM saccharide) was 0.228, the “Hydroxy radical formation (%)” value ([1]; 75 mM saccharide) was “(8) %” and the “Amount of formed hydroxy radical” value ([1]; 150 mM saccharide) was 0.125. The “Hydroxy radical formation (%)” value ([1]; 150 mM saccharide) was “(4) %”, the “Formation percentage (%) of LDL oxide” value ([2]; 1 mM cyclotetrasaccharide, 120 min) was 76% and the “Absorbance at a wavelength of 234 nm Average” value (from here on “Absorbance … of 234 nm Average”) ([2]; 1 mM cyclotetrasaccharide) was 0.163. For the same compound, the “Formation percentage (%) of LDL oxide” value ([2]; 5 mM cyclotetrasaccharide, 120 min) was 35%, the “Absorbance … of 234 nm Average” value ([2]; 5 mM cyclotetrasaccharide) was 0.076 and the “Absorbance … of 234 nm Average” value ([2]; 10 mM cyclotetrasaccharide) was 0.028. The “Absorbance at a wavelength of 234 nm” value ([2]; 50 mM cyclotetrasaccharide, 0 min after adding AAPH) was 0.0, the “Formation percentage (%) of LDL oxide” value ([2]; 50 mM cyclotetrasaccharide, 30 min, versus system with no cyclotetrasaccharide) was 14% and the “Absorbance at a wavelength of 234 nm” value ([2]; 50 mM cyclotetrasaccharide, 30 min after adding AAPH) was 0.018. For the same compound, the “Formation percentage (%) of LDL oxide” value ([2]; 50 mM cyclotetrasaccharide, 60 min, versus system with no cyclotetrasaccharide) was 20%, the “Absorbance at a wavelength of 234 nm” value ([2]; 50 mM cyclotetrasaccharide, 60 min after adding AAPH) was 0.042 and the “Formation percentage (%) of LDL oxide” value ([2]; 50 mM cyclotetrasaccharide, 120 min, versus system with no cyclotetrasaccharide) was 21%. The “Absorbance at a wavelength of 234 nm” value ([2]; 50 mM cyclotetrasaccharide, 120 min after adding AAPH) was 0.046, the “Formation percentage (%) of LDL oxide” value ([2]; 50 mM cyclotetrasaccharide, 180 min, versus system with no cyclotetrasaccharide) was 23% and the “Absorbance at a wavelength of 234 nm” value ([2]; 50 mM cyclotetrasaccharide, 180 min after adding AAPH) was 0.056. For the same compound, the “Absorbance at a wavelength of 234 nm” value ([2]; 50 mM cyclotetrasaccharide, 240 min after adding AAPH) was 0.064, the Sucrase activity (sucrase; [4]) was 0.0105 u/mg-protein and the “Sucrase Relative residual activity (%)” value (sucrase; [5]) was “(72) %”. For the same compound, the Maltase activity (maltase; [4]) was 0.0669 u/mg-protein, the “Maltase Relative residual activity (%)” value (maltase; [5]) was “(85) %” and the “residual vitamin D3 (%)” value [3] was 61%.
